Patent US20160082133A1, “CHEMICAL EXCHANGE SATURATION TRANSFER (CEST) BASED MRI USING REPORTER GENES AND SUBSTRATES AND METHODS THEREOF” (The Johns Hopkins University, priority 2013, published 2016)

Experiments:
HSV1-TK [1] = type: in vivo, mice; conditions: 3 h after iv injection, 150 mg/kg, 5 ppm, n=8
Source text: (§1) At the last time point of the experiment the full CEST-spectrum was acquired for each animal with the same parameters described in the Experimental Section (main text) except the followings: CEST-weighted images were acquired with a modified RARE pulse sequence (TR/TE=6000/35 ms), using a 213 Hz/4000 ms saturation pulse from −6 to +6 ppm around the water resonance, which was assigned to be at 0 ppm. Pixel-based B0 correction was used as described before (Kim, M. et al. Magn Reson Med 2009, 61, 1441) using the same parameters as above except for TR=1500 ms, B1/tsat=21 Hz/500 ms, with a sweep range from −1 to +1 ppm (0.1 ppm steps). Mean CEST spectra were plotted from an ROI for each tumor and normal brain tissue, after B0 correction. MTRasym=100×(S^−Δω−S^Δω)/S0 was computed at different offsets Δω.
(§2) pcDNA3.1-HSV1-tk was used to transfect 9L rat glioma cells. A single clone was selected with 0.5 mg/mL G418 antibiotics. 9L^HSV1-tk and nontransfected wild type 9L cells (9L^wt) were inoculated (2×10^5 cells/2 μL saline) bilaterally into the striatum of adult NOD-SCID male mice to generate intracranial 9L tumors in both hemispheres.
(§3) Data were acquired using a horizontal 11.7 T MRI scanner (Bruker, Biospec) equipped with a circular polarized MRI transceiver coil (i.d.=23 mm) Seven days after cell transplantation, mice were anesthetized with 1.5% isoflurane, and a series of […] CEST data sets were obtained at 1, 2, and 3 h following intravenous (iv) injection of 2 in saline (150 mg/kg body). CEST weighted images were acquired with a modified RARE pulse sequence (TR/TE=6000/35 ms), using a 213 Hz/4000 ms saturation pulse alternating between ±5 ppm frequency offsets from the water frequency. For each time point, the MTRasym map was calculated from four pairs of s−5 ppm/s+5 ppm using MATLAB (Mathworks). A single 1 mm slice with FOV of 1.6×1.6 cm^2 and a 128×48 matrix was used.

HSV1-TK [2] = biological target: T1, HSV1-TK (Human herpesvirus 1, UniProt P0DTH5); type: in vivo, mice
T1 construct: V5; expressed in transfected cells; host or cells: 9L rat glioma cells transfected with pcDNA3.1-HSV1-tk, single G418-selected clone, implanted in NOD-SCID mouse brain
Source text: as §1, §2, §3

9L^HSV1-tk cells = assay: In vitro detection of accumulation with MR spectroscopy; type: cell-based, rat; conditions: 9L^HSV1-tk cells incubated 3.5 h
Description: At least two distinctive peaks, typical to 2, appear in the spectra of the pure compound (black), a singlet at 1.22 ppm (6H of the 2 Methyls) and a triplet at 6.29 ppm (1H, the proton on 1′ carbon of the sugar). Both peaks appear in the lysate of cells incubated with the compound (red spectra) but not in the control (blue spectra). The samples were prepared using dual-phase extraction for simultaneous extraction of cellular lipids and water-soluble metabolite. Twenty five million cells (9L^HSV1-tk) were incubated with or without 2 for 3.5 h. After dual-phase extraction and lyophilizing of the water from the water-soluble fraction, the soluble intracellular contents were dissolved in D2O for the ^1H-NMR experiments. Fully relaxed ^1H-NMR spectra of the extracts were acquired on a Bruker 500 MHz scanner. The signal integrals of the typical functional groups of 2 (methyl groups —(CH3)2 at 1.22 ppm and of the CH on the C-1′ position of the sugar moiety at 6.29 ppm) and of the standard TSP (0 ppm) were determined. Then, the mM intracellular concentration of 2 was calculated as shown previously (Glunde, K. et al., Cancer Res 2005, 65, 11034) and found to be 0.37 mM.

T1 sequence (P0DTH5 whole entry): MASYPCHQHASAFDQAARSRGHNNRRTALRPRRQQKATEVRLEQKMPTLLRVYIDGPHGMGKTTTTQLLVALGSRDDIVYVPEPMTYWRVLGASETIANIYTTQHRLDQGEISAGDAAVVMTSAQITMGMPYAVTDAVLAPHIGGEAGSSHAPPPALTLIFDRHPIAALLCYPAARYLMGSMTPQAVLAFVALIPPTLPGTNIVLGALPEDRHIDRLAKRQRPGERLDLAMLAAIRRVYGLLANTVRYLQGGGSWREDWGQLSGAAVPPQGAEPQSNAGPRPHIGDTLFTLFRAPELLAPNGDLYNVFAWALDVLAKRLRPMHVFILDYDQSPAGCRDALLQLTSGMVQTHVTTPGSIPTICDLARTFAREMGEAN

SMILES: CC1(C)CN([C@H]2C[C@H](O)[C@@H](CO)O2)C(=O)NC1=O [Compound 2, 5-Methyl-5,6-dihydrothymidine]
- normalized mean MTRasym values (ΔMTRasym), 9L^wt tumor (HSV1-TK [1]): 2.0±1.7
- average difference in ΔMTRasym between the two tumor types (full CEST spectrum) (HSV1-TK [2]; 5.0 ppm, last time point, N=8): approximately 0.77%
- normalized mean MTRasym values (ΔMTRasym), 9L^HSV1-tk tumor (HSV1-TK [2]; 3 h after iv injection, 150 mg/kg, 5 ppm, n=8): 4.5±1.5
- estimated intracellular concentration in 9L^HSV1-tk tumors (HSV1-TK [2]; from calibration curve, in vivo): approximately 0.7 mM
- intracellular concentration by 1H-NMR (9L^HSV1-tk cells): 0.37 mM
